Results on 2 molecules are retold here after paper PMC12670313 (ACS Central Science, 2025).

Each structure is given as a SMILES string.

The target of one assay is r(CUG) repeats. Briefly: RNA affinity in vitro (method not given). Format: binding.
The subject of assay [1] is base pair RNA (UU internal loops replaced with AU base pairs). Briefly: 1D imino proton NMR with base pair control RNA. Type of assay: binding. The conditions noted are these: 50 µM RNA, 100 µM compound. On the procedure:
NMR spectra were recorded on a 700 MHz Bruker Avance III spectrometer equipped with a cryogenic probe. RNAs (r(GACC-UGCU-GGU-GAAA-ACC-UGC-UGG-UC) where the underlined Us indicate the internal loop nucleotides and bold indicate a GNRA hairpin) and (r(GACC-AGCU-GGU-GAAA-ACCA-GCU-GGUC) where UU internal loops were replaced with AU base pairs) were purchased from Dharmacon, HPLC purified, deprotected and desalted. The RNA (50 μM) was dissolved in NMR Buffer (5 mM KH2PO4/K2HPO4, 0.25 mM EDTA, pH 6.0) or NMR Buffer supplemented with 50 mM NaCl and reannealed by heating to 95 °C for 3 min, and then slowly cooling the sample to room temperature before adding to Shigemi NMR tubes (Shigemi, Inc.).
1D ^1H NMR spectra of exchangeable (imino) protons were acquired in 5% D2O and 95% H2O at 9 °C using 50 μM of RNA in the absence of compound. Compounds were then dissolved in D6-DMSO and added to the RNA sample to achieve a final concentration of 100 μM (1:2 RNA:compound). The chemical shifts were referenced to the residual solvent peaks of D6-DMSO, which served as the internal calibration standard. NMR spectra were processed in Topspin 4.0.6.

For orientation: Kd means a measure of binding affinity in units of concentration.

Take `Cc1ccc(CNC(=O)c2cc3c(N4CCSCC4)nc(C)cn3n2)cc1` [B1]: the Kd on r(CUG) repeats was > 50 µM. As for `COc1ccc(CCNC(=O)c2cc3c(N4CCCC4)nc(C)cn3n2)cc1OC` [A6], the “binding to base pair RNA (1D imino proton spectra)” value in assay [1] is on record as “does not bind”.
